This is an account of results in patent US20050080113A1, “Medicinal compositions” (priority 2001, published 2005).

SMILES strings stand for the structures.

For the compound `CCc1nc(-c2cccc(C)c2)c(-c2ccnc(N3CCOCC3)c2)s1` [H 36-9, 2 ethyl-4 (3-methylphenyl)-5 (2 morpholino-4 pyridyl)-1,3 thiazole], the melting point (as a rule, the temperature, or range, at which the solid turns liquid) lay within 69 to 71 °C. `CCc1nc(-c2cccc(Cl)c2)c(-c2ccnc(NC3CCCC3)c2)s1` [H 36-11, 4-[4-(3-chlorophenyl)-2-ethyl-1,3-thiazol-5-yl]-N-cyclopentyl-2-pyridylamine] gave a melting point of 110 to 111 °C. In turn, `Cc1cccc(-c2nc(-c3ccc(S(C)(=O)=O)cc3)sc2-c2ccnc(N(C)C3CCCCC3)c2)c1` [H 37-2, N-cyclohexyl-N-methyl-4-[4 (3 methylphenyl)-2 (4 methylsulfonylphenyl)-1,3 thiazol-5-yl]-2 pyridylamine] displayed a melting point of 173 to 174 °C. For the compound `Cc1cccc(-c2nc(-c3ccc(S(C)(=O)=O)cc3)sc2-c2ccnc(NCC3CCCCC3)c2)c1` [H 37-3, N-cyclohexylmethyl-4 [4-(3 methylphenyl)-2 (4 methylsulfonylphenyl)-1,3 thiazol-5-yl]-2 pyridylamine], the melting point was in the range of 157 to 159 °C. With `Cc1cccc(-c2nc(-c3ccc(S(C)(=O)=O)cc3)sc2-c2ccnc(N3CCCC3)c2)c1` [H 37-4, 4 (3 methylphenyl)-2 (4-methylsulfonylphenyl)-5 [2 (1 pyrrolidinyl)-4 pyridyl]-1,3-thiazole], the melting point was in the range of 199 to 201 °C. In the case of `Cc1cccc(-c2nc(-c3ccc(S(C)(=O)=O)cc3)sc2-c2ccnc(N3CCN(C)CC3)c2)c1` [H 37-5, 4 (3 methylphenyl)-5 [2-(4 methyl-1 piperazinyl)-4 pyridyl]-2 (4-methylsulfonylphenyl)-1,3 thiazole], the melting point fell in the range of 153 to 154 °C. Regarding `COc1ccc(-c2nc(NC(C)=O)sc2-c2ccnc(NC(C)=O)c2)cc1` [H 38, N-[5 (2 acetylamino-4 pyridyl)-4 (4 methoxyphenyl)-1,3-thiazol-2 yl]acetamide], the melting point is 262 to 264 °C.

Take `CC(=O)Nc1nc(-c2cccc(C)c2)c(-c2ccnc(C)c2)s1` [H 39, N-[4-(3-methylphenyl)-5-(2-methyl-4-pyridyl)-1,3-thiazol-2-yl]acetamide]: the melting point is 230 to 231 °C.

In turn, `CC(=O)Nc1nc(-c2cc(C)cc(C)c2)c(-c2ccnc(C)c2)s1` [H 40-1, N-[4 (3,5 dimethylphenyl)-5 (2 methyl-4 pyridyl)-1,3 thiazol-2 yl]acetamide] displayed a melting point of 236 to 237 °C. The result for `CC(=O)Nc1nc(-c2cccc(C)c2)c(-c2cc(C)nc(C)c2)s1` [H 40-2, N-[5 (2,6 dimethyl-4-pyridyl)-4 (3 methylphenyl)-1,3 thiazol-2 yl]acetamide] reads 185 to 187 °C; that for `CC(=O)Nc1nc(-c2cc(C)cc(C)c2)c(-c2cc(C)nc(C)c2)s1` [H 40-3, N-[4 (3,5 dimethylphenyl)-5 (2,6 dimethyl-4 pyridyl)-1,3 thiazol-2 yl]acetamide], 266 to 267 °C. As for `Cc1cccc(-c2nc(NC(=O)c3cccnc3)sc2-c2ccnc(C)c2)c1` [H 41, N-[4 (3 methylphenyl)-5 (2-methyl-4 pyridyl)-1,3 thiazol-2 yl]nicotinamide], the melting point fell in the range of 175 to 178 °C. `Cc1cc(C)cc(-c2nc(NC(=O)c3cccnc3)sc2-c2ccnc(C)c2)c1` [H 42-1, N-[4-(3,5-dimethylphenyl)-5-(2-methyl-4-pyridyl)-1,3-thiazol-2-yl]nicotinamide] yielded a melting point of 203 to 206 °C. For `Cc1cc(C)cc(-c2nc(NC(=O)c3cccnc3)sc2-c2cc(C)nc(C)c2)c1` [H 42-2, N-[4 (3,5 dimethylphenyl)-5 (2,6 dimethyl-4 pyridyl)-1,3 thiazol-2 yl]nicotinamide], the melting point was 267 to 268 °C.

`Cc1cccc(-c2nc(NC(=O)c3cccnc3)sc2-c2ccnc(NC3CCCCC3)c2)c1` [H 42-3, N-[5 (2 cyclohexylamino-4-pyridyl)-4 (3 methylphenyl)-1,3 thiazol-2 yl]nicotinamide]: the melting point was 201 to 203 °C. Consider `Cc1cccc(-c2nc(NC(=O)c3cccnc3)sc2-c2ccnc(NC3CCCC3)c2)c1` [H 42-4, N-[5 (2 cyclopentylamino-4 pyridyl)-4 (3 methylphenyl)-1,3 thiazol-2 yl]nicotinamide], for which the melting point lay within 215 to 216 °C. Compound `O=C(Nc1nc(-c2ccc(F)cc2)c(-c2ccnc(NC3CCCCC3)c2)s1)c1cccnc1` [H 42-5, N-[5 (2 cyclohexylamino-4-pyridyl)-4 (4 fluorophenyl)-1,3 thiazol-2 yl]nicotinamide] showed a melting point of 136 to 138 °C.

`Cc1cccc(-c2nc(NC(=O)c3cccnc3)sc2-c2ccnc(F)c2)c1` [H 42-6, N-[5 (2 fluoro-4 pyridyl)-4 (3 methylphenyl)-1,3 thiazol-2 yl]nicotinamide] came in with a melting point of 229 to 231 °C. In the case of `Cc1cc(-c2sc(NC(=O)c3cccnc3)nc2-c2ccc(F)cc2)ccn1` [H 42-7, N-[4 (4 fluorophenyl)-5-(2 methyl-4 pyridyl)-1,3 thiazol-2 yl]nicotinamide], the melting point lay in the range of 261 to 262 °C. For the compound `Cc1cccc(-c2nc(N(C)C(=O)c3cccnc3)sc2-c2ccnc(NC3CCCCC3)c2)c1` [H 42-8, N-[5 (2 cyclohexylamino-4-pyridyl)-4 (3 methylphenyl)-1,3 thiazol-2 yl]-N-methylnicotinamide], the melting point fell in the range of 147 to 148 °C. The result for `Cc1cccc(-c2nc(N(C)C(=O)c3cccnc3)sc2-c2ccnc(NC3CCCC3)c2)c1` [H 42-9, N-[5 (2 cyclopentylamino-4 pyridyl)-4 (3 methylphenyl)-1,3 thiazol-2 yl]N-methylnicotinamide] reads 148 to 149 °C. Then `Cc1cccc(-c2nc(NC(=O)c3ccc(Cl)nc3)sc2-c2ccnc(C)c2)c1` [H 43, 6 chloro-N-[4 (3-methylphenyl)-5 (2 methyl-4 pyridyl)-1,3 thiazol-2-yl]nicotinamide], with 228 to 230 °C. Consider `Cc1cccc(-c2nc(NC(=O)c3ccc(Cl)nc3)sc2-c2ccnc(NC3CCCCC3)c2)c1` [H 44-1, 6 chloro-N-[5 (2-cyclohexylamino-4 pyridyl)-4 (3 methylphenyl)-1,3 thiazol-2-yl]nicotinamide], for which the melting point was in the range of 255 to 256 °C. `Cc1cccc(-c2nc(NC(=O)c3ccc(Cl)nc3)sc2-c2ccnc(NC3CCCC3)c2)c1` [H 44-2, 6 chloro-N-[5 (2-cyclopentylamino-4 pyridyl)-4 (3 methylphenyl)-1,3 thiazol-2-yl]nicotinamide] returned a melting point of 211 to 212 °C. For `Cc1cccc(-c2nc(N(C)C(=O)c3ccc(Cl)nc3)sc2-c2ccnc(NC3CCCCC3)c2)c1` [H 44-4, 6 chloro-N-[5 (2-cyclohexylamino-4 pyridyl)-4 (3 methylphenyl)-1,3 thiazol-2-yl]-N-methylnicotinamide], the melting point fell in the range of 171 to 172 °C. Consider `Cc1cccc(-c2nc(NC(=O)c3ccc(C)nc3)sc2-c2ccnc(C)c2)c1` [H 45, 6 methyl-N-[4 (3-methylphenyl)-5 (2 methyl-4 pyridyl)-1,3 thiazol-2-yl]nicotinamide], for which the melting point is 233 to 234 °C. `Cc1cccc(-c2nc(NC(=O)c3ccc(C)nc3)sc2-c2ccnc(NC3CCCCC3)c2)c1` [H 46-1, N-[5 (2 cyclohexylamino-4-pyridyl)-4 (3 methylphenyl)-1,3 thiazol-2 yl]-6-methylnicotinamide] displayed a melting point of 242 to 243 °C.

Compound `Cc1cccc(-c2nc(NC(=O)c3ccc(C)nc3)sc2-c2ccnc(NC3CCCC3)c2)c1` [H 46-2, N-[5 (2 cyclopentylamino-4 pyridyl)-4 (3 methylphenyl)-1,3 thiazol-2 yl]-6-methylnicotinamide] came in with a melting point of 213 to 214 °C.

With `COc1ccc(C(=O)Nc2nc(-c3cccc(C)c3)c(-c3ccnc(C)c3)s2)cn1` [H 47, 6 methoxy-N-[4 (3-methylphenyl)-5 (2 methyl-4 pyridyl)-1,3 thiazol-2-yl]nicotinamide], the melting point lay within 224 to 226 °C.

The compound `COc1ccc(C(=O)Nc2nc(-c3cccc(C)c3)c(-c3ccnc(NC4CCCCC4)c3)s2)cn1` [H 48-1, N-[5 (2 cyclohexylamino-4-pyridyl)-4 (3 methylphenyl)-1,3 thiazol-2 yl]-6-methoxynicotinamide] returned a melting point of 191 to 192 °C. Consider `COc1ccc(C(=O)Nc2nc(-c3cccc(C)c3)c(-c3ccnc(NC4CCCC4)c3)s2)cn1` [H 48-2, N-[5 (2 cyclopentylamino-4 pyridyl)-4 (3 methylphenyl)-1,3-thiazol-2 yl]-6-methoxynicotinamide], for which the melting point is 219 to 221 °C. Take `COc1ccc(C(=O)Nc2nc(-c3cc(C)cc(C)c3)c(-c3ccnc(C)c3)s2)cn1` [H 48-3, N-[4-(3,5-dimethylphenyl)-5-(2-methyl-4-pyridyl)-1,3-thiazol-2-yl]-6-methoxynicotinamide]: the melting point fell in the range of 242 to 244 °C.

In turn, `COc1ncccc1C(=O)Nc1nc(-c2cccc(C)c2)c(-c2ccnc(C)c2)s1` [H 49, 2 methoxy-N-[4 (3-methylphenyl)-5 (2 methyl-4 pyridyl)-1,3 thiazol-2-yl]nicotinamide] showed a melting point of 169 to 170 °C.

In turn, `COc1ccc(-c2nc(NC(C)=O)sc2-c2ccnc(N)c2)cc1` [H 50, N-[5 (2 amino-4 pyridyl)-4-(4 methoxyphenyl)-1,3 thiazol-2 yl]acetamide] gave a melting point of 247 to 250 °C. As for `COc1ccc(-c2nc(NC(=O)c3ccccc3)sc2-c2ccnc(N)c2)cc1` [H 51, N-[5 (2 amino-4 pyridyl)-4-(4 methoxyphenyl)-1,3 thiazol-2 yl]benzamide], the melting point lay in the range of 219 to 222 °C. Then `Cc1cccc(-c2sc(NC(=O)Nc3ccccc3)nc2-c2cc(C)nc(C)c2)c1` [H 52, N-[4 (2,6 dimethyl-4 pyridyl)-5 (3 methylphenyl)-1,3 thiazol-2 yl]-N′-phenylurea], with 173 to 174 °C. On to `Cc1cc(C)cc(-c2nc(NC(=O)Nc3ccccc3)sc2-c2cc(C)nc(C)c2)c1` [H 53-1, N-[4 (3,5 dimethylphenyl)-5 (2,6 dimethyl-4 pyridyl)-1,3 thiazol-2 yl]-N′-phenylurea], for which the melting point was 219 to 222 °C.
